# From patent publication US12090147B2, “Combination therapy with 2-(4-chlorophenyl)-N-((2-(2,6-dioxopiperidin-3-yl)-1-oxoisoindolin-5-yl)methyl)-2,2-difluoroacetamide” (Celgene Corporation, priority 2019, dated 2024)
# How the values were obtained:
# Type in all cases: cell-based, human
# MV4-11 [1] = test: Cytokine induction, electrochemiluminescence assay of culture supernatant; conditions: compounds at 1 μM, 72 hours
# [2] = system: bone marrow mononuclear cells (BMMC) from primary AML patients; test: Secreted IL-1β in primary bone marrow mononuclear cells ex vivo
# Method: For cytokine assays on primary AML and healthy bone marrow cells, cells were seeded at 0.2 million in 150 μL media per well of ultra-low attachment 96-well plate in duplicates. Cell culture media was collected 24 and 48 hours post-treatment with Compound 1 and/or LPS. Cells were pelleted, fixed in 1.6% PFA and froze down for flow cytometry analysis.
# Normal PBMCs were purchased from AllCells (Cat No. PB006F). Primary AML BMMC in were purchased from Conversant (SKU ID: BBM1000-E1110036458110215SH) or Fidelis Research (AML55, AML57, AML73, AML74, AML76, AML79, AML80, AML81, AML84, AML95). Bone marrow from health donor was purchased from StemCell Technologies (Cat No. 70001.2).
# Normal PBMCs were cultured in RPMI-1640 (ATCC Cat No. 30-2001) containing 20% fetal bovine serum (Corning Cat No. 35-010-CV). […]
# IL-1α (Meso Scale Disgnostics, Cat No. K151RBD), IL-1β (Meso Scale Disgnostics, Cat No. K151QPD), IL-1RA (Meso Scale Disgnostics, Cat No. K151WTD), IL-18 (Meso Scale Disgnostics, Cat No. K151VJK), TNFa (Meso Scale Disgnostics, Cat No. K151QWD), VEGF Meso Scale Disgnostics, Cat No. K151RHD) levels were measured by (Meso Scale Disgnostics assay kits following manufacturer's instructions. Measurements were made on a MESO™ SECTOR S 600 plate reader (Meso Scale Disgnostics). […]
# [3] = system: eight AML cell lines and normal PBMC; test: IL-1 family cytokine induction across the cell panel
# Method: (§1) For cytokine assays on AML cell lines, cells were seeded at 1 million per mL, 3 mL per well of 6-well plates and allowed set overnight. The next day, cells were treated with 3 μL 1000× working stock of compounds of interest.
# (§2) IL-1α (Meso Scale Disgnostics, Cat No. K151RBD), IL-1β (Meso Scale Disgnostics, Cat No. K151QPD), IL-1RA (Meso Scale Disgnostics, Cat No. K151WTD), IL-18 (Meso Scale Disgnostics, Cat No. K151VJK), TNFa (Meso Scale Disgnostics, Cat No. K151QWD), VEGF Meso Scale Disgnostics, Cat No. K151RHD) levels were measured by (Meso Scale Disgnostics assay kits following manufacturer's instructions. Measurements were made on a MESO™ SECTOR S 600 plate reader (Meso Scale Disgnostics).
# (§3) The level of intracellular pro IL-1β and released IL-1β in eight AML cell lines and normal PBMC treated with a titration of Compound 1 over a 48 hour period was assessed. (see FIGS. 1A-1C, Table 2). Supernatant IL-1βb level was induced over 5 fold in 6 out of 8 AML cell lines and normal PBMC upon Compound 1 treatment compared to DMSO (FIGS. 1A, 1B, and 1C, Table 2).
# The maturation of IL-1β can be mediated through classical caspase-1 inflammasome pathway, or a caspase-8 dependent non-canonical inflammasome signaling (Antonopoulos et al. J Biol Chem. 2015, 290(33):20167-84; Chauhan et al. Cell Rep. 2018, 25(9):2354-2368; and Schneider et al. Cell Rep. 2017, 21(13):3846-3859). To understand if classical caspase-1 mediated inflammasome pathway was activated by Compound 1, the levels of an inflammasome marker, IL-18, were tested in response to Compound 1 (FIG. 1B, Table 1), using a known inflammasome stimulant lipopolysaccharide (LPS) as positive control.
# KG-1 = test: Cytokine induction, electrochemiluminescence assay of culture supernatant
# Method: as §1
# (§4) Human AML cell lines, HL-60 (CCL-240), KG-1 (CCL-246), ML-2 (ACC-15), MOLM-13 (ACC-554), MV-4-11 (CRL-9591), NOMO-1 (ACC-542), TF-1 (CRL-2003), THP-1 (TIB-202), and U937 (CRL-1593) were obtained from American Type Culture Collection (ATCC; Manassas, VA) or Deutsche Sammlung von Mikroorganismen and Zellkulturen (DSMZ, Germany) cell banks. Acute myeloid leukemia cell lines were maintained in RPMI-1640 (ATCC Cat No. 30-2001) containing 20% fetal bovine serum (FBS) (Corning Cat No. 35-010-CV) and maintained in humidified incubators at 5% carbon dioxide.
# as §2
# (§5) Cell proliferation (CTG) and caspase 3/7 activation (IncuCyte) were analyzed using GraphPad Prism. Electrochemiluminescence data was analyzed using MSD Discovery Workbench platform.
# as §3
# U937 = test: as above
# Method: as §1, §4, §2, §5, §3
# NOMO-1 = test: as above
# Method: as §1, §4, §2, §5, §3
# ML-2 [4] = test: as above; conditions: ML-2
# Method: as §1, §4, §2, §5, §3
# THP-1 = test: as above
# Method: as §1, §4, §2, §5, §3
# MV4-11 [5] = test: as above; conditions: MV4-11
# Method: as §1, §4, §2, §5, §3
# TF-1 = test: as above
# Method: as §1, §4, §2, §5, §3
# ML-2 [6] = test: as above; conditions: compounds at 1 μM, 72 hours
# [7] = most cell lines tested (FIG. 1B: ML-2), LPS as positive control
smiles,measurement,setting,value
"O=C1CCC(N2Cc3cc(CNC(=O)C(F)(F)c4ccc(Cl)cc4)ccc3C2=O)C(=O)N1 (centres unmarked) [Compound 1, 2-(4-chlorophenyl)-N-((2-(2,6-dioxopiperidin-3-yl)-1-oxoisoindolin-5-yl)methyl)-2,2-difluoroacetamide]","Secreted IL-1β levels, panel of mechanistic compounds",MV4-11 [1],produced markedly more secreted IL-1β compared to all other compounds tested
same,"IL-1β in cell culture supernatant, FAB M0/M1/M2 AML BMMC",[2]; four M0/M1/M2 samples,not able to induce IL-1β
same,"IL-1β in cell culture supernatant, FAB M4/M5 AML BMMC","[2]; two out of five M4/M5 samples, 24 and 48 hours post treatment",marked induction of IL-1β
same,Supernatant IL-1β level induction compared to DMSO,"[3]; in 6 out of 8 AML cell lines and normal PBMC, titration of Compound 1 over a 48 hour period",over 5 fold
same,"IL-1α, IL-1β and IL-1RA induction",[3]; [7],"induced IL-1α, IL-1β and IL-1RA post-apoptosis"
same,IL-18 levels (inflammasome marker),[3]; [7],without significantly increased the levels of IL-18
same,IL-1β induction,KG-1,27.17
same,IL-18 induction,KG-1,0.38
same,IL-1β induction,U937,1.28
same,IL-18 induction,U937,0.41
same,IL-1β induction,NOMO-1,1.34
same,IL-18 induction,NOMO-1,0.24
same,IL-1β induction,ML-2 [4],3.48
same,IL-18 induction,ML-2 [4],0.00
same,"Intracellular pro- and secreted IL-1β induction, time of onset",ML-2 [4],not observed until 48 hours post-treatment
same,Secreted IL-1β in cell culture supernatant,"ML-2 [4]; 24, 48 and 72 hours, doses conferring similar caspase3/7 activation and viability loss",conferred induction
same,IL-1β induction,THP-1,12.13
same,IL-18 induction,THP-1,2.46
same,IL-1β induction,MV4-11 [5],16.46
same,IL-18 induction,MV4-11 [5],0.00
same,IL-1β induction,TF-1,1.41
same,IL-18 induction,TF-1,0.64
same,"Secreted IL-1β levels, panel of mechanistic compounds",ML-2 [6],produced markedly more secreted IL-1β compared to all other compounds tested
